Columns and labels:
[1] = target: T1, MFE-2 (598–736) (Homo sapiens, UniProt P51659); assay: SPR analysis, immobilized His-tagged MFE-2 (598-736); assay type: binding; settings: Biacore 3000, CM5 chip, 25 °C, read-out: dissociation constant (KD) for MFE-2
T1 construct: For MFE-2 (598–736) DNA was amplified; made in house; host or cells: E. coli Rosetta 2 (DE3) pLysS
Description: SPR was utilized as an independent confirmation of the kinetic parameters between SQAP and the putative binding proteins. […] The recombinant proteins were then expressed in Escherichia coli and purified to homogeneity. In addition, full length, His-tagged ADRM1 and GST-tagged HR23B (GST-HR23B) were also used. The proteins were first immobilized on a CM5 sensor chip of the SPR biosensor (Biacore 3000). For GST-HR23B analysis, a GST protein was additionally immobilized and used as a control in order to eliminate possible nonspecific binding of SQAP. SQAP samples at different concentrations were then injected over the proteins immobilized on the sensor chip. As a negative control we used sulfoquynovosylpropanediol (SQP), which lacks the fatty acid moiety of SQAP (Fig. 1). […]
The binding kinetics of SCP-2, MFE-2, ADRM1, HR23B and FAK with SQAP and SQP were analyzed on a Biacore 3000 instrument (GE Healthcare, Little Chalfont, UK). […] The buffer of purified peptides was exchanged to HBS-P (150 mM NaCl, 0.005% Surfactant P20, 10 mM HEPES-NaOH pH 7.4) using a PD 10 column (GE Healthcare, Little Chalfont, UK) and the concentrations were quantified using DC protein assay kit (Bio-Rad Laboratories, Hercules, CA, USA). […] Kinetic parameters were determined by analyzing the data using BIAevaluation 4.1 software (GE Healthcare, Little Chalfont, UK).

[2] = system: A549 cells; assay: WST-8 cell viability assay, A549; assay type: cell-based, human; settings: A549, 46 h, SQAP 10 and 20 µM
Description: HUVEC and A549 cells were seeded into a 96-well culture plate (2 × 10^4 cells/well). The following day, cells were treated with SQAP or vehicle in a medium containing 1% FBS and VEGF (50 ng/mL) for 17 h (HUVEC) or fibronectin (10 μg/mL) for 46 h (A549). Cell viability was measured using Cell Count Reagent SF (Nacalai Tesque, Kyoto, Japan) following the manufacturer’s instructions. Briefly, 1/10 volume of the WST-8 solution was added to each well, and the plates were incubated at 37 °C for 1 h. Then, cell viability was determined colorimetrically by measuring OD450 using a microplate reader on a Wallac ARVO 5X microplate reader (Perkin Elmer, Waltham, MA, USA).
control SQAP 10 µM SQAP 20 µM
Livecellswere measured with SF reagent under similarconditionsas describedin thewound healing
assayinFig.5. (A)HUVEC and (B)A549 cells.
(also on this page, place not known: Cell viability (%) Cell viability (%) Live cells were similar conditions as described in the wound assay in Fig. 5. (A) HUVEC (B) A549)

[3] = system: FAK phosphorylation (Y397, Y925) in A549 cells; assay: FAK phosphorylation level in A549, Western blotting; assay type: cell-based, human; settings: A549, fibronectin 10 μg/mL, 1 h treatment
Description: A549 cells were incubated in a serum-free medium for 48 h in 60 mm dishes (IWAKI, Tokyo, Japan). Then 10 μM SQAP, SQMG or SQP was added and incubated for 30 min followed by addition of fibronectin 10 μg/mL (Sigma, St. Louis, MI, USA) and incubation for another 30 min. FAK phosphorylation level was analyzed by Western blotting as described in the next section.
(§1) Cells were harvested and solubilized in RIPA buffer (20 mM Tris-HCl, pH 7.5, 1% Sodium deoxycholate, 150 mM NaCl, 5 mM EDTA, 1% Triton X-100, 0.1% SDS, 0.1%, 1 mM PMSF, 1 mM vanadate and 1 μg/mL leupeptin). Protein quantification was determined using the DC protein assay kit (Bio-Rad, Hercules, CA, USA). A total of 15 μg of each protein sample were separated by SDS–PAGE gels and blotted onto polyvinylidene difluoride membranes (Merck, Kenilworth, NJ, US). After blocking for 1 h with Blocking-One (Nacalai Tesque, Kyoto, Japan), proteins were detected by incubating the membranes with the primary antibody at 4 °C overnight (anti-Y397 2:2000, anti-Y925 5:2000 and anti-FAK 0.5:2000) followed by incubation with horseradish peroxidase-conjugated secondary antibodies at room temperature for 1 h (anti-mouse 0.5:2000 and anti-rabbit 0.4:2000).

[4] = system: FAK phosphorylation (Y397, Y925) in HUVEC cells; assay: FAK phosphorylation level in HUVEC, Western blotting; assay type: cell-based, human
Description: HUVEC cells were incubated for 20 h in serum-free medium in 60 mm dishes. SQAP, SQMG or SQP was added and incubated for 30 min followed by addition of 50 ng/mL VEGF (RD systems, Minneapolis, MN. USA) and incubation for another 30 min. FAK phosphorylation level was analyzed by Western blotting as described in the next section.
as §1

[5] = system: Akt phosphorylation at S473 in HUVEC; assay: Akt phosphorylation in HUVEC, Western blotting; assay type: cell-based, human; settings: treated for 21 h, 10 µM
Description: Furthermore, we looked at FAK signaling pathway to validate our results. Paxillin binds to FAK 919–938 residues which is a sequence contained within the region where SQAP is predicted to bind. Binding between paxillin and FAK results in paxillin phosphorylation at Y118[35][36]. Thus, we examined paxillin phosphorylation. […] Additionally, we studied Akt phosphorylation at S473 on account of FAK is a known factor in control of Akt activity. We observed that Akt phosphorylation was diminished when treated with SQAP or SQMG for 21 h (see Supplementary Fig. S3).
as §1, with “0.4:2000). […]” for “0.4:2000).”

T1 sequence (P51659 598-736): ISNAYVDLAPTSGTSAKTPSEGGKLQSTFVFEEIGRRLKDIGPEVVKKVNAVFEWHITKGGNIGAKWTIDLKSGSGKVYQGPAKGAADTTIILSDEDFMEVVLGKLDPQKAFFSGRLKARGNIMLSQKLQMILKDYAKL

`CCCCCCCCCCCCCCCCCC(=O)OCCCO[C@H]1O[C@H](CS(=O)(=O)O)[C@@H](O)[C@H](O)[C@H]1O` [SQAP, sulfoquynovosylacylpropanediol] was tested, and the Kd [1] was 14.2 µM, the “cytotoxicity (WST-8 cell viability)” value [2] was “noncytotoxic” and the “phosphorylation of FAK at Y397 and Y925” value [3] was “could inhibit”. The “phosphorylation level of FAK at Y397 and at Y925 after VEGF stimulation” value ([4]; VEGF 50 ng/mL, 1 h) was “appreciably reduced”, the “phosphorylation of FAK in the absence of VEGF” value ([4]; no VEGF, within 1 h) was “inhibited” and the “Akt phosphorylation at S473” value [5] was “diminished”.
